Source: patent US20100015141A1, “4-PHENOXY-6-ARYL-1H-PYRAZOLO[3,4-D]PYRIMIDINE AND N-ARYL-6-ARYL-1H-PYRAZOLO[3,4-D]PYRIMIDIN-4-AMINE COMPOUNDS, THEIR USE AS MTOR KINASE AND PI3 KINASE INHIBITORS, AND THEIR SYNTHESES” (Wyeth, priority 2008, published 2010)

Key:
Type in all cases: biochemical
PI3K-α = PI3K-α (Homo sapiens, UniProt P42336); assay: PI3K-alpha fluorescence polarization assay; conditions: 20 μM PIP2, 25 μM ATP
Method: (§1) The reaction buffer was 20 mM HEPES pH7.5, 2 mM MgCl2, 0.05% CHAPS, and 0.01% βME (added fresh). The substrate solution was 40 μM PIP2 (diC8, Echelon, Salt Lake City Utah cat #P-4508, 1 mM in water) and 50 μM ATP in the reaction buffer. Nunc 384-well black polypropylene fluorescent plates were used for PI3K assays. The assay is run by putting 9.5 μl of freshly diluted enzyme in the reaction buffer per well, adding 0.5 μl of diluted drug or DMSO, and mixing. Then 10 μl of the substrate solution is added to each well to start the reaction. A final concentration of 20 μM PIP2 and 25 μM ATP in the reaction was used. Reactions were allowed to proceed for 30-60 minutes at room temperature. After 30-60 minutes, 20 μl of a solution of 10 nM TAMRA detector (Red detector probe-Echelon) and 2.5 uM of GST-murineGRP (1.5 mg/ml in 17% glycerol) was added per well to stop the reaction. The resulting solution was mixed well and allowed to stand for 90-110 minutes before reading plate. Assay Plates were read on Perkin-Elmer Envision plate readers with appropriate filters for Tamra [BODIPY-TMRI(1,3,4,5)P4]. Data obtained were used to calculate enzymatic activity and enzyme inhibition by inhibitor compounds. It is important to keep Red probe solutions dark. This procedure is adapted from Echelon Biosciences Inc procedure for their PI3-Kinase fluorescence polarization activity Assay kit Product number K-1100.

mTOR = mTOR (Homo sapiens, UniProt P42345); assay: mTOR enzyme assay (DELFIA, His6-S6K phosphorylation); design: FLAG; conditions: 100 μM ATP, 1.25 μM His6-S6K
PI3K-γ = PI3K-γ (Homo sapiens, UniProt P48736); assay: PI3K-gamma fluorescence polarization assay; conditions: 20 μM PIP2, 25 μM ATP
Method: as §1

Chain of PI3K-α (P42336 whole entry, species assumed): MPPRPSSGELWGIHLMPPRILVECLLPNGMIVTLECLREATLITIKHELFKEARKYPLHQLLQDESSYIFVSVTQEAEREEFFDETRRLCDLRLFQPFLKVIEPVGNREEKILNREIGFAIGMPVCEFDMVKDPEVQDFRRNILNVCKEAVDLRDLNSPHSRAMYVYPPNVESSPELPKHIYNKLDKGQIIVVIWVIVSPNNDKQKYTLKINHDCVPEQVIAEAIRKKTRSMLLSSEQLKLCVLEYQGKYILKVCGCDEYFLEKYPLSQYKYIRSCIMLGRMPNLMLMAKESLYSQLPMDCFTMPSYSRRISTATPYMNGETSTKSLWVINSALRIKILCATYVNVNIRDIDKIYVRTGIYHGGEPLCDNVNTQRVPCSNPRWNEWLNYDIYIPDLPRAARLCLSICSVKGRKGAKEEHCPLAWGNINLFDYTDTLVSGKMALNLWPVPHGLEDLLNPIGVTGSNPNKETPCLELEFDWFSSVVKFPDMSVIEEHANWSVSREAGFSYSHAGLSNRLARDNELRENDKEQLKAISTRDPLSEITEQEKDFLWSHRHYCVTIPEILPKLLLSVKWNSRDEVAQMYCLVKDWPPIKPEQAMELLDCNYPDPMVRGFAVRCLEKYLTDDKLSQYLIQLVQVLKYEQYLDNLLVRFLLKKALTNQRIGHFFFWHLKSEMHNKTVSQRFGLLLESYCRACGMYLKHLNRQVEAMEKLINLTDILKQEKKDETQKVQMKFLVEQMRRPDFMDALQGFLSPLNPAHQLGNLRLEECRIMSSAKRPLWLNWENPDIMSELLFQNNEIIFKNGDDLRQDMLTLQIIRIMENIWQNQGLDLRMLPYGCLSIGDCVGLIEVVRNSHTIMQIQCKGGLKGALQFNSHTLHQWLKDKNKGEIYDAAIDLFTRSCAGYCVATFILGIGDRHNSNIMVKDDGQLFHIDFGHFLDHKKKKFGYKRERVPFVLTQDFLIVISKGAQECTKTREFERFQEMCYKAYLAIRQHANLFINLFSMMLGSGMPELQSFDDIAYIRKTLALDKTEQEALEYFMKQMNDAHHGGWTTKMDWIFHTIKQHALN
Chain of PI3K-α (P27986 whole entry partner, species assumed): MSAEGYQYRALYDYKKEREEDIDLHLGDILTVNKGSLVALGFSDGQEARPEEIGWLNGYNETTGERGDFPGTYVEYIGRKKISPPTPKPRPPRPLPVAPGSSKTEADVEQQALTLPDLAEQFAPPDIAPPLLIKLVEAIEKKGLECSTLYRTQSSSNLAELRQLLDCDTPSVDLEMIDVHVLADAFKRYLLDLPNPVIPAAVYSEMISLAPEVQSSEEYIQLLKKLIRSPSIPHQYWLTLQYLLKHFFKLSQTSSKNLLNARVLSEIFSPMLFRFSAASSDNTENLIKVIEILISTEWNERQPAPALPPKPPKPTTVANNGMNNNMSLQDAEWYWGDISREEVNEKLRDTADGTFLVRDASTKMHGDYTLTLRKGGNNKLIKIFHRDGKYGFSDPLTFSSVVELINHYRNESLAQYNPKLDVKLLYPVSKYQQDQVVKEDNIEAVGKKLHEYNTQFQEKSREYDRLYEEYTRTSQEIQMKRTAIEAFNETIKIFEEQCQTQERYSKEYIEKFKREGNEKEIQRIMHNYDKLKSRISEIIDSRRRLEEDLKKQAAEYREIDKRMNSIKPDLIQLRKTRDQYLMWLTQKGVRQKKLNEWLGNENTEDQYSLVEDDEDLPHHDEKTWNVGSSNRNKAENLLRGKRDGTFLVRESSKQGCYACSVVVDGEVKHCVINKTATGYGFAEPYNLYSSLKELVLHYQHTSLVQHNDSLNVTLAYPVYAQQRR
Chain of PI3K-γ (P48736 whole entry, species assumed): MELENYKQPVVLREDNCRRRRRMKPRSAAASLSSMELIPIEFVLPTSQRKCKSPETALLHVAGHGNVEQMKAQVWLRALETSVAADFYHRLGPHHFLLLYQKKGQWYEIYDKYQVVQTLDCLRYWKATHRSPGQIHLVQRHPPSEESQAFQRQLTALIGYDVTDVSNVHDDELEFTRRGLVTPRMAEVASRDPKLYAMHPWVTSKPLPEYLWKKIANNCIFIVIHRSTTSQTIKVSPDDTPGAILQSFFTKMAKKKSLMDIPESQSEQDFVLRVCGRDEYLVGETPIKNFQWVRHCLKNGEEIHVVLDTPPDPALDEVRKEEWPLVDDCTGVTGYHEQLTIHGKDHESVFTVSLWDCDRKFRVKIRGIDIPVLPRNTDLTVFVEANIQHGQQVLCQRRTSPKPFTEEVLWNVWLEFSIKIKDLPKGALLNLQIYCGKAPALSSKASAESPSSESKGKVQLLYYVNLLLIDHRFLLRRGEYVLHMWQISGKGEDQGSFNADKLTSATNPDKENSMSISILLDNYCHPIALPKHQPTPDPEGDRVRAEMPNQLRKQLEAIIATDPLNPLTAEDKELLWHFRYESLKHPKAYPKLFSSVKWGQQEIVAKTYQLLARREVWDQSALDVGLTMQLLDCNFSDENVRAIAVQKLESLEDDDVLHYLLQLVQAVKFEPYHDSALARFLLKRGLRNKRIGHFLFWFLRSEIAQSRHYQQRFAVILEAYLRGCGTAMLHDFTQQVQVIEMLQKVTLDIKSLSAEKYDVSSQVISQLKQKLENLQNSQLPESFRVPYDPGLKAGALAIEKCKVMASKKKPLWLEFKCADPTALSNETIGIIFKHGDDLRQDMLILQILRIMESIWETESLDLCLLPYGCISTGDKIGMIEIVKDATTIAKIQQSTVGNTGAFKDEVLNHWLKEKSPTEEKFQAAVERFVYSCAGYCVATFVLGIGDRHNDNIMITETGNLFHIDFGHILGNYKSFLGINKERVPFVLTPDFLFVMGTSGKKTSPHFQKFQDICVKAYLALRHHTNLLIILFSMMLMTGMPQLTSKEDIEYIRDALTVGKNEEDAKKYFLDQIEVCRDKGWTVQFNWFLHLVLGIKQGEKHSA

| SMILES | IC50 (PI3K-α) [nM] | IC50 (mTOR) [nM] | IC50 (PI3K-γ) [nM] |
| --- | --- | --- | --- |
| CN(c1ccc(C(N)=O)cc1)c1nc(-c2ccccc2)nc2c1cnn2C [Example 34, 4-[methyl(1-methyl-6-phenyl-1H-pyrazolo[3,4-d]pyrimidin-4-yl)amino]benzamide] | 6700 | 16000 | > 10000 |
| CC(=O)Nc1ccc(N(C)c2nc(-c3ccccc3)nc3c2cnn3C)cc1 [Example 35, N-{4-[methyl(1-methyl-6-phenyl-1H-pyrazolo[3,4-d]pyrimidin-4-yl)amino]phenyl}acetamide] | 1500 | 4700 | 7470 |
| Cn1ncc2c(Oc3ccc4[nH]ccc4c3)nc(-c3cccnc3)nc21 [Example 41, 4-(1H-indol-5-yloxy)-1-methyl-6-pyridin-3-yl-1H-pyrazolo[3,4-d]pyrimidine] | 215 | 7200 | 428 |
| Cn1ncc2c(Oc3ccc4[nH]ccc4c3)nc(-c3cccc(C#N)c3)nc21 [Example 43, 3-[4-(1H-indol-5-yloxy)-1-methyl-1H-pyrazolo[3,4-d]pyrimidin-6-yl]benzonitrile] | 598 | 8400 | 1610 |
| COc1cccc(-c2nc(Oc3ccc(OC)c(OC)c3)c3cnn(C)c3n2)c1 [Example 45, 4-(3,4-dimethoxyphenoxy)-6-(3-methoxyphenyl)-1-methyl-1H-pyrazolo[3,4-d]pyrimidine] | 653 | > 20000 | 1290 |
| CC(=O)Nc1ccc(Oc2nc(-c3ccc(O)cc3)nc3c2cnn3C)cc1 [Example 54, N-(4-{[6-(4-hydroxyphenyl)-1-methyl-1H-pyrazolo[3,4-d]pyrimidin-4-yl]oxy}phenyl)acetamide] | 266 | 4900 | 398 |
| Cn1ncc2c(Oc3ccc4[nH]ccc4c3)nc(-c3ccc(-c4ccccc4)cc3)nc21 [Example 56, 6-biphenyl-4-yl-4-(1H-indol-5-yloxy)-1-methyl-1H-pyrazolo[3,4-d]pyrimidine] | 11500 | 16000 | > 10000 |
| CC(C)c1ccc(-c2nc(Oc3ccc4[nH]ccc4c3)c3cnn(C)c3n2)cc1 [Example 58, 4-(1H-indol-5-yloxy)-6-(4-isopropylphenyl)-1-methyl-1H-pyrazolo[3,4-d]pyrimidine] | 3800 | > 20000 | 10600 |
| Cn1cc(-c2nc(Oc3ccc4[nH]ccc4c3)c3cnn(C)c3n2)cn1 [Example 59, 4-(1H-indol-5-yloxy)-1-methyl-6-(1-methyl-1H-pyrazol-4-yl)-1H-pyrazolo[3,4-d]pyrimidine] | 2870 | > 20000 | 2510 |
| Cn1ncc2c(Nc3ccc(C(N)=O)cc3)nc(-c3ccc(-c4ccccc4)cc3)nc21 [Example 60, 4-[(6-biphenyl-4-yl-1-methyl-1H-pyrazolo[3,4-d]pyrimidin-4-yl)amino]benzamide] | 8550 | > 20000 | > 10000 |

The next lines start with the values.

| IC50 (PI3K-α) [nM] | IC50 (mTOR) [nM] | IC50 (PI3K-γ) [nM] | SMILES |
| --- | --- | --- | --- |
| 298 | 2500 | 1140 | COc1cccc(-c2nc(Oc3ccc4[nH]ccc4c3)c3cnn(C)c3n2)c1 [Example 38, 4-(1H-indol-5-yloxy)-6-(3-methoxyphenyl)-1-methyl-1H-pyrazolo[3,4-d]pyrimidine] |
| 160 | 2800 | 118 | COc1ccc(-c2nc(Oc3ccc4[nH]ccc4c3)c3cnn(C)c3n2)cc1OC [Example 39, 6-(3,4-dimethoxyphenyl)-4-(1H-indol-5-yloxy)-1-methyl-1H-pyrazolo[3,4-d]pyrimidine] |
| 387 | 570 | 600 | CC(=O)Nc1ccc(Oc2nc(-c3ccc4[nH]ccc4c3)nc3c2cnn3C)cc1 [Example 55, N-(4-{[6-(1H-indol-5-yl)-1-methyl-1H-pyrazolo[3,4-d]pyrimidin-4-yl]oxy}phenyl)acetamide] |
| 3220 | 12000 | > 10000 | COc1ccc2cc(-c3nc(Oc4ccc5[nH]ccc5c4)c4cnn(C)c4n3)ccc2c1 [Example 57, 4-(1H-indol-5-yloxy)-6-(6-methoxy-2-naphthyl)-1-methyl-1H-pyrazolo[3,4-d]pyrimidine] |
